Values quoted from earlier work, collected in patent US9090606B2, “Compounds” (CHIESI FARMACEUTICI S.p.A., priority 2012, dated 2015).

Assays:
[1] = test system: smoking model of COPD in mice
[2] = patients with severe disease, frequent exacerbations and mucus hypersecretion

O=C(Nc1c(Cl)cncc1Cl)c1ccc(OC(F)F)c(OCC2CC2)c1 [roflumilast]
reduction of the numbers of neutrophils in sputum (COPD patients; COPD patients, oral, given over 4 weeks): 36% | improvement of FEV 1 (COPD patients; [2]): approximately 50 mL | reduction of exacerbation (COPD patients; [2]): about 15% | effect on lung inflammation and emphysema [1]: inhibits lung inflammation and emphysema
